Laboratory results from ChEMBL document CHEMBL3045832, “3-Aryl-2-{4-[4-(2,4-dioxothiazolidin-5-ylmethyl)phenoxy]-phenyl}-acrylic acid alkyl ester: synthesis and antihyperglycemic evaluation” (2011).

How the values were obtained:
Type in all cases: functional
Parameters in all cases: scale not given: the % may be the effect or the level left
[1] = system: Rattus norvegicus; assay: Antihyperglycemic activity in streptozotocin-induced Rattus norvegicus Wistar (rat) diabetic model assessed as reduction in plasma glucose level at 25 umol/kg, po for 15 measured after treatment
[2] = system: Rattus norvegicus; assay: Antihyperglycemic activity in streptozotocin-induced Rattus norvegicus Wistar (rat) diabetic model assessed as reduction in plasma glucose level at 15 umol/kg, po for 9 weeks measured on day 7
[3] = system: Rattus norvegicus; assay: Antihyperglycemic activity in streptozotocin-induced Rattus norvegicus Wistar (rat) diabetic model assessed as reduction in plasma glucose level at 20 umol/kg, po for 9 weeks measured at 10 day
[4] = system: Rattus norvegicus; assay: Antihyperglycemic activity in streptozotocin-induced Rattus norvegicus Wistar (rat) diabetic model assessed as reduction in plasma glucose level at 15 umol/kg, po for 9 weeks measured at 3 day
[5] = system: Rattus norvegicus; assay: Antihyperglycemic activity in streptozotocin-induced Rattus norvegicus Wistar (rat) diabetic model assessed as reduction in plasma glucose level at 25 umol/kg, po for 9 weeks measured at 15 day
[6] = system: Rattus norvegicus; assay: Antihyperglycemic activity in streptozotocin-induced Rattus norvegicus Wistar (rat) diabetic model assessed as reduction in plasma glucose level at 30 umol/kg, po for 9 weeks measured on day 7
[7] = system: Rattus norvegicus; assay: Antihyperglycemic activity in streptozotocin-induced Rattus norvegicus Wistar (rat) diabetic model assessed as reduction in plasma glucose level at 30 umol/kg, po for 9 weeks measured at 3 day
[8] = system: Rattus norvegicus; assay: Antihyperglycemic activity in streptozotocin-induced Rattus norvegicus Wistar (rat) diabetic model assessed as reduction in plasma glucose level at 30 umol/kg, po for 9 weeks measured at 10 day
[9] = system: Rattus norvegicus; assay: Antihyperglycemic activity in streptozotocin-induced Rattus norvegicus Wistar (rat) diabetic model assessed as reduction in plasma glucose level at 25 umol/kg, po for 9 weeks measured on day 7
[10] = system: Rattus norvegicus; assay: Antihyperglycemic activity in streptozotocin-induced Rattus norvegicus Wistar (rat) diabetic model assessed as reduction in plasma glucose level at 30 umol/kg, po for 9 weeks measured at 15 day
[11] = system: Rattus norvegicus; assay: Antihyperglycemic activity in streptozotocin-induced Rattus norvegicus Wistar (rat) diabetic model assessed as reduction in plasma glucose level at 15 umol/kg, po for 9 weeks measured at 15 day
[12] = system: Rattus norvegicus; assay: Antihyperglycemic activity in streptozotocin-induced Rattus norvegicus Wistar (rat) diabetic model assessed as reduction in plasma glucose level at 20 umol/kg, po for 9 weeks measured on day 7
[13] = system: Rattus norvegicus; assay: Antihyperglycemic activity in streptozotocin-induced Rattus norvegicus Wistar (rat) diabetic model assessed as reduction in plasma glucose level at 20 umol/kg, po for 9 weeks measured at 3 day
[14] = system: Rattus norvegicus; assay: Antihyperglycemic activity in streptozotocin-induced Rattus norvegicus Wistar (rat) diabetic model assessed as reduction in plasma glucose level at 20 umol/kg, po for 9 weeks measured at 15 day
[15] = system: Rattus norvegicus; assay: Antihyperglycemic activity in streptozotocin-induced Rattus norvegicus Wistar (rat) diabetic model assessed as reduction in plasma glucose level at 15 umol/kg, po for 9 weeks measured at 10 day
[16] = system: Rattus norvegicus; assay: Antihyperglycemic activity in streptozotocin-induced Rattus norvegicus Wistar (rat) diabetic model assessed as reduction in plasma glucose level at 25 umol/kg, po for 9 weeks measured at 10 day
[17] = system: Rattus norvegicus; assay: Antihyperglycemic activity in streptozotocin-induced Rattus norvegicus Wistar (rat) diabetic model assessed as reduction in plasma glucose level at 25 umol/kg, po for 9 weeks measured at 3 day

With `CCOC(=O)/C(=C/c1ccc(OC)c(OC)c1)c1ccc(Oc2ccc(CC3SC(=O)NC3=O)cc2)cc1` (stereo not given) the Activity [1] was 37.15%.

`CCOC(=O)/C(=C/c1ccc(Br)cc1)c1ccc(Oc2ccc(CC3SC(=O)NC3=O)cc2)cc1` (stereo not given) gave an Activity [1] of 13.63%.

`CCCOC(=O)/C(=C/c1ccc(Br)cc1)c1ccc(Oc2ccc(CC3SC(=O)NC3=O)cc2)cc1` (stereo not given) gave an Activity [1] of 13.42%.

Compound `COC(=O)/C(=C/c1ccccc1)c1ccc(Oc2ccc(CC3SC(=O)NC3=O)cc2)cc1` (stereo not given) has an Activity [1] of 10.74%.

Work on `CCOC(=O)/C(=C/c1ccccc1)c1ccc(Oc2ccc(CC3SC(=O)NC3=O)cc2)cc1` (stereo not given) yielded an Activity [1] of 9.8%.

`CCCOC(=O)/C(=C/c1ccccc1)c1ccc(Oc2ccc(CC3SC(=O)NC3=O)cc2)cc1` (stereo not given) gave an Activity [1] of 8.6%.

With `COC(=O)/C(=C/c1ccc(OC)cc1)c1ccc(Oc2ccc(CC3SC(=O)NC3=O)cc2)cc1` (stereo not given) the Activity [1] was 16.3%.

`CCOC(=O)/C(=C/c1ccc(OC)cc1)c1ccc(Oc2ccc(CC3SC(=O)NC3=O)cc2)cc1` (stereo not given) showed an Activity [1] of 14.61%.

In the case of `CCCOC(=O)/C(=C/c1ccc(OC)cc1)c1ccc(Oc2ccc(CC3SC(=O)NC3=O)cc2)cc1` (stereo not given), the Activity [1] is reported as 13%.

`COC(=O)/C(=C/c1ccc(OC)cc1OC)c1ccc(Oc2ccc(CC3SC(=O)NC3=O)cc2)cc1` (stereo not given) was tested, and the Activity [1] was 46.13%.

In the case of `CCOC(=O)/C(=C/c1ccc(OC)cc1OC)c1ccc(Oc2ccc(CC3SC(=O)NC3=O)cc2)cc1` (stereo not given), the Activity [1] is reported as 46.03%.

Work on `CCCOC(=O)/C(=C/c1ccc(OC)cc1OC)c1ccc(Oc2ccc(CC3SC(=O)NC3=O)cc2)cc1` (stereo not given) yielded an Activity [1] of 45.91%.

For `COC(=O)/C(=C/c1ccc(OC)c(OC)c1)c1ccc(Oc2ccc(CC3SC(=O)NC3=O)cc2)cc1` (stereo not given), the Activity [1] was 38.11%.

For `CCCOC(=O)/C(=C/c1ccc(OC)c(OC)c1)c1ccc(Oc2ccc(CC3SC(=O)NC3=O)cc2)cc1` (stereo not given), the Activity [1] was 35.85%.

For `COC(=O)/C(=C/c1cccc(OC)c1OC)c1ccc(Oc2ccc(CC3SC(=O)NC3=O)cc2)cc1` (stereo not given), the Activity [1] was 37.05%.

Work on `CCCOC(=O)/C(=C/c1cccc(OC)c1OC)c1ccc(Oc2ccc(CC3SC(=O)NC3=O)cc2)cc1` (stereo not given) yielded an Activity [2] of 11.49%, an Activity [3] of 17.26% and an Activity [4] of 8.38%. It also gave an Activity [5] of 37.24%, an Activity [6] of 20.87% and an Activity [7] of 19.42%. It also gave an Activity [8] of 24.68%, an Activity [9] of 21.34% and an Activity [10] of 35.47%. It also gave an Activity [11] of 18.47%, an Activity [12] of 14.56% and an Activity [13] of 10.91%. For the same compound, the Activity [14] was 21.76%, the Activity [15] was 15.53% and the Activity [16] was 25.53%. The Activity [17] was 18.06% and the Activity [1] was 37.24%.

For `COC(=O)/C(=C/c1ccc(O)cc1)c1ccc(Oc2ccc(CC3SC(=O)NC3=O)cc2)cc1` (stereo not given), the Activity [1] was 18.81%.

With `CCOC(=O)/C(=C/c1ccc(O)cc1)c1ccc(Oc2ccc(CC3SC(=O)NC3=O)cc2)cc1` (stereo not given) the Activity [1] was 18.16%.

For `CCCOC(=O)/C(=C/c1ccc(O)cc1)c1ccc(Oc2ccc(CC3SC(=O)NC3=O)cc2)cc1` (stereo not given), the Activity [1] was 17.48%.

`COC(=O)/C(=C/c1ccc([N+](=O)[O-])cc1)c1ccc(Oc2ccc(CC3SC(=O)NC3=O)cc2)cc1` (stereo not given) showed an Activity [1] of 13.26%.

`CCOC(=O)/C(=C/c1ccc([N+](=O)[O-])cc1)c1ccc(Oc2ccc(CC3SC(=O)NC3=O)cc2)cc1` (stereo not given) showed an Activity [1] of 13.4%.

In the case of `CCCOC(=O)/C(=C/c1ccc([N+](=O)[O-])cc1)c1ccc(Oc2ccc(CC3SC(=O)NC3=O)cc2)cc1` (stereo not given), the Activity [1] is reported as 12.45%.

Work on `COC(=O)/C(=C/c1ccc(Br)cc1)c1ccc(Oc2ccc(CC3SC(=O)NC3=O)cc2)cc1` (stereo not given) yielded an Activity [1] of 15.58%.

`CN(CCOc1ccc(CC2SC(=O)NC2=O)cc1)c1ccccn1` (stereo not given) [ROSIGLITAZONE] showed an Activity [1] of 56.73%.
